# Measured values published in article PMC11338949, “E41K mutation activates Bruton’s tyrosine kinase by stabilizing an inositol hexakisphosphate-dependent invisible dimer” (The Journal of Biological Chemistry, 2024).
# Read-outs that look alike come from different tables or passages of the source.
# Assays:
# PH-TH^E41K [1] = target: T1, PH-TH^E41K (Bos taurus, UniProt Q3ZC95, E41K); test: Size-exclusion chromatography of PH-TH domain with ligand
# T1 construct: amino acid residue number 4–170; His-SUMO (N, cleaved yes); made in house; host or cells: E. coli BL21-DE3
# Method: Size-exclusion chromatography of various constructs of the PH-TH domain was performed using the Superdex-200 10/300 Gl column. For the apo PH-TH domain, the column was equilibrated with running buffer (25 mM Tris-Cl, 100 mM NaCl, 1 mM DTT, pH 7.2), and 500 μl of 75 μM protein was loaded into the column, at a flow rate of 0.3 ml/min and at 8 °C. The elution profile was recorded, and the retention time of the protein was calculated. For the ligand-bound samples, the protein was mixed with ligand at a protein-to-ligand ratio of 1:4, and incubated at 4 °C for 15 min before loading into the size-exclusion column. Before loading the sample, the column was pre-equilibrated with a running buffer containing the ligand.
# [2] = target: T2, PH-TH^E41K (isolated PH-TH domain of BTK, E41K mutant) (Bos taurus, UniProt Q3ZC95, E41K); test: Isothermal titration calorimetry, ligand binding to isolated PH-TH domain E41K mutant; settings: ITC
# T2 construct: amino acid residue number 4–170; His-SUMO (N, cleaved yes); made in house; host or cells: E. coli BL21-DE3
# Method: (§1) The isothermal titration calorimetry experiments were performed using MicroCal ITC (GE Healthcare) and MicroCal PEAQ-ITC (Malvern). The PH-TH domain was buffer exchanged to 20 mM HEPES, 150 mM NaCl, pH 7.5. During the titration, 25 μM protein in the cell was titrated with a ligand at the protein-to-ligand ratio of 1: 5.5. All ITC titrations were performed at 20 °C. The initial injection of 0.5 μl was excluded from the data analysis. During the titration, 3 μl of ligand was injected in 13 steps, and each injection step was separated by 180 s. The protein solution was stirred at 300 rpm during the titration.
# PH-TH^E41K [3] = target: T1, PH-TH^E41K; test: Thermal denaturation by circular dichroism spectroscopy; settings: at the Tm of the apo state, equimolar ligand
# Method: The melting temperature of the PH-TH domain was determined from the Circular Dichroism (CD) spectrum recorded at increasing temperatures (20° to 76 °C). For each sample, the CD spectra from 300 to 190 nm were recorded using a Jasco-J1500 spectropolarimeter with a temperature increment of 4 °C. CD spectra were recorded with 5 μM protein in 20 mM Sodium phosphate buffer pH 7.4 and in the absence or in the presence of an equimolar ligand. The measured ellipticity data was converted into molar ellipticity ([39]). The ΔGUnfolding was calculated considering the simplest two-step unfolding model, where a protein exists in a folded (F) and an unfolded (U) state as described previously ([40], [41]). The fraction unfolded [U] protein at a given temperature is:(1) [U]=(θT−θF)/(θU−θF) Where, θF and θU are the molar ellipticity of the fully folded and unfolded state at 218 nm, θT is the molar ellipticity at a given temperature. Considering that at a given temperature, the sum of the unfolded and folded [F] fraction of the protein is 1, the equilibrium constant, KUnfolding is:(2) KUnfolding=[U]/1−[U] […] The ΔΔGunfolding was calculated from the difference between the ΔG of the IP6 bound ΔGholo and ΔGapo state, measured at the Tm of the corresponding apo PH-TH construct.
# BTK PH-TH E41K/R49S = target: T3, BTK PH-TH E41K/R49S (Bos taurus, UniProt Q3ZC95, E41K/R49S); test: Isothermal titration calorimetry, IP6 binding to PH-TH E41K/R49S; settings: ITC
# T3 construct: amino acid residue number 4–170; His-SUMO (N, cleaved yes); made in house; host or cells: E. coli BL21-DE3
# Method: as §1, with “analysis.” for “analysis. During the titration, 3 μl of ligand was injected in 13 steps, and each injection step was separated by 180 s. The protein solution was stirred at 300 rpm during the titration.”
# BTK^E41K = target: T4, BTK^E41K (Mus musculus, UniProt P35991, E41K); test: TIRF microscopy of membrane-bound BTK-mCherry in live CHO cells after IP6 stimulation; assay type: cell-based, Chinese Hamster
# T4 construct: expressed in transfected cells; host or cells: CHO cells, transient transfection with pCDNA BTK-mCherry
# Method: For Total internal reflection fluorescence (TIRF) microscopy, CHO cells were seeded in a glass bottom dish and transfected with 500 ng DNA. After 16 h of post-transfection, cells were serum starved by incubating in Opti-MEM serum-free media for 6 h. The images of lived CHO cells were recorded for 10 min before and after IP6 treatment. The TIRF images were acquired on a Nikon Eclipse Ti2 inverted microscope equipped with a Nikon 100 × 1.49 numerical aperture oil-immersion TIRF objective, a TIRF illuminator, a Perfect Focus system (PFS), and a motorized stage. The critical angle and the refractive index were set to 63° and 1.515, respectively ([53]). The samples were excited at 561 nm using an LU-N4 laser unit (Nikon, Tokyo, Japan) with solid-state lasers. Image acquisition was done using the Nikon NIS-Elements software. Live cell images were acquired at 1-min intervals for 10 min using an EMCCD camera, with an exposure time of 200 ms. The images were processed and analyzed using Fiji. Out-of-focus fluorescence in the acquired images is removed by deconvolution ([54]). […] The fluorescence intensity of each frame was quantified using “create spectrum jru V1” routine of Fiji. The half-life of fluorescence intensity at the plasma membrane was determined by fitting the fluorescence decay at indicated time points to a first-order kinetic equation using GraphPad Prism version 9.5.1.
# BTK wild-type = BTK wild-type (Mus musculus, UniProt P35991); test: Immunofluorescence of Y551 phosphorylation in transiently transfected CHO cells; settings: 500 μM IP6 for 1 h
# Method: (§3) The IP6-mediated activation of BTK was determined by immunofluorescence and immunoblot in Chinese Hamster Ovary (CHO) cell line transiently transfected with BTK-mCherry cloned in pCDNA. […] Before activation, transfected cells were serum-starved for 6 h in opti-MEM, followed by incubation with 500 μM IP6 for 1 h in opti-MEM. For Immunoblot, cells were washed with ice-cold PBS and then incubated in RIPA buffer [10 mM Tris-Cl (pH 8.0), 140 mM NaCl, 1 mM EDTA, 0.1% SDS, and 1% Triton X-100] containing protease and phosphatase inhibitors (2 mM Benzamidine, 1 mM PMSF and 1 mM Sodium orthovanadate) for 10 min. […]
# (§4) All images were acquired with the Leica SP8 confocal platform using an oil immersion HC PL APO CS2 63 × objective (NA 1.4) at 3.0X digital zoom. […] The level of BTK on the membrane or cytoplasm was determined from the intensity of mCherry measured at λex = 552 nm and λem = 576 to 651 nm, respectively. The Y551 phosphorylation was determined from the intensity of FITC tagged to the secondary antibody and measured at λex = 488 nm and λem = 505 to 531 nm. […] The intensity of mCherry or FITC at the membrane was determined by subtracting the respective intensities of ROI2 from ROI1. Whereas cytoplasmic intensity of mCherry or FITC was determined by subtracting the respective intensities of ROI3 from ROI2. […]
# BTK^E41K/R28H = BTK^E41K/R28H (Mus musculus, UniProt P35991, E41K/R28H); test: as above; settings: 500 μM IP6 for 1 h
# Method: as §3, §4
# [4] = target: T5, wild-type PH-TH domain of BTK (Bos taurus, UniProt Q3ZC95); test: Dynamic light scattering of PH-TH domain with IP6; settings: IP6 bound PH-TH domain
# T5 construct: amino acid residue number 4–170; His-SUMO (N, cleaved yes); made in house; host or cells: E. coli BL21-DE3
# Method: (§2) The Dynamic Light Scattering experiments were conducted using Malvern Zetasizer DLS Detectors using 1.5 ml plastic cuvettes. The samples were prepared in a buffer containing 25 mM Tris-Cl, 100 mM NaCl, 1 mM DTT, and pH 7.2. The experiment included three measurements of ten runs each. The theoretical calculations of the hydrodynamic radius of the proteins were performed using Hydropro ([51]).
# PH-TH^E41K [5] = target: T1, PH-TH^E41K; test: Dynamic light scattering of PH-TH domain with IP6; settings: in the presence of IP6
# Method: as §2
# BTK PH-TH E41K/R28H = target: T6, BTK PH-TH E41K/R28H (Bos taurus, UniProt Q3ZC95, E41K/R28H); test: Isothermal titration calorimetry, IP6 binding to PH-TH E41K/R28H; settings: ITC
# T6 construct: amino acid residue number 4–170; His-SUMO (N, cleaved yes); made in house; host or cells: E. coli BL21-DE3
# Method: as §1, with “analysis.” for “analysis. During the titration, 3 μl of ligand was injected in 13 steps, and each injection step was separated by 180 s. The protein solution was stirred at 300 rpm during the titration.”
# T1 sequence (Q3ZC95 4-170 E41K): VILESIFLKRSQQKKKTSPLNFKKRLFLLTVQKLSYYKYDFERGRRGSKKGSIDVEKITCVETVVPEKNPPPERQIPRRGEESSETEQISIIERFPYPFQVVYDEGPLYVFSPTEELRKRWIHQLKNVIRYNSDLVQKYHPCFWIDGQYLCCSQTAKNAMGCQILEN
# T2 sequence (Q3ZC95 4-170 E41K): as above
# T6 sequence (Q3ZC95 4-170 R28H/E41K): as the sequence (Q3ZC95 4-170 E41K) above, with R25H counted along it
# T3 sequence (Q3ZC95 4-170 E41K/R49S): as the sequence (Q3ZC95 4-170 E41K) above, with R46S counted along it
# Sequence of BTK wild-type (P35991 whole entry): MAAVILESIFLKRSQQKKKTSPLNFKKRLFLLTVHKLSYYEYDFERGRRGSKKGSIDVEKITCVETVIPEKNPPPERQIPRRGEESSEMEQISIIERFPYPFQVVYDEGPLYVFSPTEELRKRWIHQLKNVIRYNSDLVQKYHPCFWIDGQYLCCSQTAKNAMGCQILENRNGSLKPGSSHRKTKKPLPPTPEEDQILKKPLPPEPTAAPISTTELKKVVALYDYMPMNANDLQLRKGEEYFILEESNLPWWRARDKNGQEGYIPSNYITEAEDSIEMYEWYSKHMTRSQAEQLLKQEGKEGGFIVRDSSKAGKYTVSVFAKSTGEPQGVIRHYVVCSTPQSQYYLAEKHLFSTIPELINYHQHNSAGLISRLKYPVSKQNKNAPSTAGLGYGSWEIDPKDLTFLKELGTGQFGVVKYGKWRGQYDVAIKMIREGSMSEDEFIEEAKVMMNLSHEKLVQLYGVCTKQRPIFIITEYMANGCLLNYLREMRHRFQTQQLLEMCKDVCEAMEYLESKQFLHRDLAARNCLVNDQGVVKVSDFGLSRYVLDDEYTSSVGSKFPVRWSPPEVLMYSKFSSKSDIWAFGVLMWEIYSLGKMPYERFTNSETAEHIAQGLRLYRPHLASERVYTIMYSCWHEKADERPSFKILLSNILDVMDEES
# T5 sequence (Q3ZC95 4-170): as the sequence (Q3ZC95 4-170 E41K) above, with K38E counted along it
# T4 sequence (P35991 whole entry E41K): as the sequence (P35991 whole entry) above, with E41K counted along it
# Sequence of BTK^E41K/R28H (P35991 whole entry R28H/E41K, the tested form may be a part): as the sequence (P35991 whole entry) above, with R28H, E41K counted along it
Compound,"dimerization of PH-TH^E41K (PH-TH^E41K [1]; size-exclusion chromatography, in the presence of ligand)",binding to PH-TH^E41K ([2]; 25 μM protein titrated with 137 μM ligand),ΔΔGunfolding (ΔGholo – ΔGapo) (PH-TH^E41K [3]) [kcal/mol],∆H1 (BTK PH-TH E41K/R49S; Table S1) [kcal/mol],"Kd (BTK PH-TH E41K/R49S; one-site fit, binding to canonical lipid binding site, read-out: Kd (Kd1)) [µM]",apparent size of migrating species in size-exclusion column (PH-TH^E41K [1]; in the presence of IP6 (300 μM)) [kDa],critical concentration at which BTK^E41K comes out of the membrane (BTK^E41K) [mM],activation (Y551 phosphorylation) of cytosolic fraction of BTK (BTK wild-type),activation (Y551 phosphorylation) of BTK (BTK^E41K/R28H),∆H1 ([2]; Table S1) [kcal/mol],∆H2 ([2]; Table S1) [kcal/mol],"Kd ([2]; Table S1, 20 °C, read-out: Kd2) [µM]","Kd ([2]; two-site independent binding model, strong site, 20 °C, read-out: Kd1) [µM]","Kd ([2]; two-site independent binding model, weak site, 20 °C, read-out: Kd2) [µM]",hydrodynamic radius [4] [nm],hydrodynamic radius (PH-TH^E41K [5]) [nm],∆H1 (BTK PH-TH E41K/R28H; Table S1) [kcal/mol],"Kd (BTK PH-TH E41K/R28H; Table S1, read-out: Kd1) [µM]","Kd (BTK PH-TH E41K/R28H; one-site fit, weak binding to peripheral lipid binding site, read-out: Kd) [µM]"
O=P(O)(O)O[C@@H]1[C@H](O)[C@H](O)[C@@H](OP(=O)(O)O)[C@H](OP(=O)(O)O)[C@H]1O [IP3],does not dimerize,does not bind,,,,,,,,,,,,,,,,,
"O=P(O)(O)OC1C(OP(=O)(O)O)C(OP(=O)(O)O)C(OP(=O)(O)O)C(OP(=O)(O)O)C1OP(=O)(O)O (stereo not shown) [IP6, inositol hexakisphosphate]",,,1.49 ± 0.79,-4.16 ± 0.55,0.622 ± 0.077,~44,0.5,activates,does not activate,-4.749 ± 0.159,-5.098 ± 2.36,1.28 ± 0.366,0.152 ± 0.018,1.3 ± 0.4,2.18 ± 0.10,3.14 ± 0.48,-1.562 ± 1.008,2.42 ± 0.151,2.4 ± 0.15
